Reference: patent EP0766694B1 (ZAMBON GROUP S.p.A., priority 1994, dated 1995)
pIC50: −log10 of the molar value. Counter-ions that a name gives are not always drawn.

Experiments:
NEP = biological target: T1, NEP (Rattus norvegicus, UniProt P07861); assay: NEP-inhibitory activity (inhibition of [3H]Tyr-Gly-Gly formation from [3H][Leu5]-enkephaline in kidney cortex membranes)
T1 sequence (P07861 1-750): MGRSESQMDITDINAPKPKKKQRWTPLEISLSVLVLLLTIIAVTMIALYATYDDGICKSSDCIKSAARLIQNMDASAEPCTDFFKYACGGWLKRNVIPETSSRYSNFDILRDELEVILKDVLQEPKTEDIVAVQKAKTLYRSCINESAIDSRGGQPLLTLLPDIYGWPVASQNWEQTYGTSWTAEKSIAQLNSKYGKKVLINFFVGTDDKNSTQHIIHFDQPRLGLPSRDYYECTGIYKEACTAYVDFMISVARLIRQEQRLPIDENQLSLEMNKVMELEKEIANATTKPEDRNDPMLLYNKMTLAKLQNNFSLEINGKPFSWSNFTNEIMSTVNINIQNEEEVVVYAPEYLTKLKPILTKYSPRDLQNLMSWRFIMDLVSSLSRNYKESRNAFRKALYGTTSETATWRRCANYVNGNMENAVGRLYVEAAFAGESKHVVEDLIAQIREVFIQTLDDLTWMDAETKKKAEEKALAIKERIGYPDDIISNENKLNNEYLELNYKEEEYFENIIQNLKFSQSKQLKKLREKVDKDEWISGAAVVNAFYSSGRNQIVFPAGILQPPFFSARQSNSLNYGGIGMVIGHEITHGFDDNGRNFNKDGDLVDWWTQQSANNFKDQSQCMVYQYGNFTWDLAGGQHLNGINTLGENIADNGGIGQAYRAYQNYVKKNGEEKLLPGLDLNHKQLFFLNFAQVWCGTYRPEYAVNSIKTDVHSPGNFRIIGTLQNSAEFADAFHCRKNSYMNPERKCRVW

ACE = biological target: T2, ACE (Oryctolagus cuniculus, UniProt P12822); assay: ACE-inhibitory activity (FAPGG hydrolysis, absorbance at 340 nm); assay type: biochemical; conditions: ACE purified by lung rabbit, FAPGG 0.8 mM, 37°C; compounds of formula I tested in the form of sodium salts
T2 construct: ACE (250 mU/ml purified by lung rabbit, EC 3.4.15.1 SIGMA); purchased SIGMA; host or cells: rabbit lung
T2 sequence (P12822 34-1310): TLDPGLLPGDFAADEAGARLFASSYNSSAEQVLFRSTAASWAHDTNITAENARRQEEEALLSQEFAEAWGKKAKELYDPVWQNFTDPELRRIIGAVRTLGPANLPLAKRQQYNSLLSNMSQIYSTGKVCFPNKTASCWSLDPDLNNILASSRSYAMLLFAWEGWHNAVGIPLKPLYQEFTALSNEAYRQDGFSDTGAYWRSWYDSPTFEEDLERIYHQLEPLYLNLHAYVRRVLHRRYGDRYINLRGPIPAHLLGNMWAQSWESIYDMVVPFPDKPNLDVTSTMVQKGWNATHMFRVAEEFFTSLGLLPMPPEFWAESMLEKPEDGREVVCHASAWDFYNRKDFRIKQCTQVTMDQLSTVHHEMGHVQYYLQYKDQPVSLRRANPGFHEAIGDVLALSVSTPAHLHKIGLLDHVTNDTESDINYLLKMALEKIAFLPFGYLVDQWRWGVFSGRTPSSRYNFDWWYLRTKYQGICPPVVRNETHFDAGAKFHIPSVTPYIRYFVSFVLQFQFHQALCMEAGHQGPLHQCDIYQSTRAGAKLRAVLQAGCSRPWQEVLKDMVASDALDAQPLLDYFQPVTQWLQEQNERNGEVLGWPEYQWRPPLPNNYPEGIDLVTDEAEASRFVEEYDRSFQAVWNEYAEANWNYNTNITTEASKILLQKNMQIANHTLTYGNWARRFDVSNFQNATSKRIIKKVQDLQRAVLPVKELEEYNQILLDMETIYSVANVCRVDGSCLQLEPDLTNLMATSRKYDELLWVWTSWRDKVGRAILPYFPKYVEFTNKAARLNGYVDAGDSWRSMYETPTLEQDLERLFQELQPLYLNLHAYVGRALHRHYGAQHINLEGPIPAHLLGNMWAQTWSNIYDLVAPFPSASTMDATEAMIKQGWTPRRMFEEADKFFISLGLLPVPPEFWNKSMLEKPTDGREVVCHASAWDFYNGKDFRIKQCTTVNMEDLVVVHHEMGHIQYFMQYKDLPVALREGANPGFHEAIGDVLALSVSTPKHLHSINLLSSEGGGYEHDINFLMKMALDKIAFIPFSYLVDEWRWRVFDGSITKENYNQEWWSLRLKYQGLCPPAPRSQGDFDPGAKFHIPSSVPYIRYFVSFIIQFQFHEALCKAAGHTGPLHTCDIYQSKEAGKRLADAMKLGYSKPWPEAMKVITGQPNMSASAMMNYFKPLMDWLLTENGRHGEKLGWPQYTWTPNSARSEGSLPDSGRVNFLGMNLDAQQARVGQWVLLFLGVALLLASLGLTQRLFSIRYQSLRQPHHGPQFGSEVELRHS
Method: […] of ACE (250 mU/ml purified by lung rabbit, EC 3.4.15.1 SIGMA) with 50 µl of the compound of formula I or of the reference compounds, were preincubated in thermostated cuvettes at 37°C for 5 minutes.
The reaction was started by adding furylacryloylphenylalanylglycylglycine 0.8 mM (FAPGG-SIGMA).
Contemporaneously, by using a Beckman DU-50 spectrophotometer provided with a program for calculating delta A/minutes and regression coefficients of the enzyme kinetics curves, the absorbance at 340 nm was recorded in continuo for 5 minutes.

| NEP-inhibitory activity IC50 (nM) (NEP; membranes from rat kidney cortex, [3H][Leu5]-enkephaline 15 nM, 20 minutes at 30°C, compounds of formula I tested in the form of sodium salts) | Compound | pIC50 (ACE) | pIC50 (NEP) |
| --- | --- | --- | --- |
| not active | C[C@H](CS)C(=O)N1CCC[C@H]1C(=O)O [Captopril, reference compound] | – | – |
| – | CC(C)C[C@H](N[C@@H](CCc1ccccc1)C(=O)O)C(=O)N[C@@H](Cc1ccc(-c2ccccc2)cc1)C(=O)O [Compound 1, N-[N'-[(1S)-1-carboxy-3-phenyl-propyl]-L-leucyl]-(1.1'-biphenyl-4-yl)-L-alanine disodium salt] | 8.82 | 7.56 |
| – | CC(C)[C@H](N[C@@H](CCc1ccccc1)C(=O)O)C(=O)N[C@@H](Cc1ccc(-c2ccccc2)cc1)C(=O)O [Compound 10] | 8.70 | 7.39 |
| – | O=C(O)[C@H](Cc1ccc(-c2ccccc2)cc1)NC(=O)[C@H](Cc1cccs1)N[C@@H](CCc1ccccc1)C(=O)O [Compound 15] | 8.74 | 8.00 |
| – | CC(C)C[C@H](N[C@@H](CCC(=O)Nc1ccccc1)C(=O)O)C(=O)N[C@@H](Cc1ccc(-c2ccccc2)cc1)C(=O)O [Compound 17] | 8.66 | 7.57 |
| – | CC(C)C[C@H](N[C@@H](CC(=O)NCc1ccccc1)C(=O)O)C(=O)N[C@@H](Cc1ccc(-c2ccccc2)cc1)C(=O)O [Compound 20] | 7.82 | 7.28 |
